Like-named read-outs stand apart in the source and are kept apart here.
Legend:
[1] = Cell viability assay (MTT) on normal mammary epithelial cells; type: cell-based; details: human, MCF-10A normal mammary gland epithelial cells, four days of incubation
Experimental: The viability test was performed on a normal human mammary gland epithelial cell line (MCF-10A). The MTT test was used to assess the viability of compounds 3a–e, 4a–c, and 5a–c.
The MTT assay was used to determine how the synthesized compounds affected the viability of mammary epithelial cells (MCF-10A). See Appendix SA (Supplementary Materials). […]
4.2. Biological evaluation
4.2.1. Cytotoxic activity using MTT Assay and evaluation of IC50
MTT assay was performed to investigate the effect of the synthesized compounds on mammary epithelial cells (MCF-10A). The cells were propagated in medium consisting of Ham's F-12 medium/ Dulbecco's modified Eagle's medium (DMEM) (1:1) supplemented with 10% foetal calf serum, 2 mM glutamine, insulin (10 μg/mL), hydrocortisone (500 ng/mL) and epidermal growth factor (20 ng/mL). Trypsin ethylenediamine tetra acetic acid (EDTA) was used to passage the cells after every 2-3 days. 96-well flat-bottomed cell culture plates were used to seed the cells at a density of 10^4 cells mL-1. The medium was aspirated from all the wells of culture plates after 24 h followed by the addition of synthesized compounds (in 200 μL medium to yield a final concentration of 0.1% (v/v) dimethylsulfoxide) into individual wells of the plates.
Four wells were designated to a single compound. The plates were allowed to incubate at 37°C for 96 h. Afterwards, the medium was aspirated and 3-[4,5-dimethylthiazol-2-yl]-2,5-diphenyltetrazolium bromide (MTT) (0.4 mg/mL) in medium was added to each well and subsequently incubated for 3 h. The medium was aspirated and 150 μL dimethyl sulfoxide (DMSO) was added to each well. The plates were vortexed followed by the measurement of absorbance at 540 nm on a microplate reader. […]

BRAF^V600E [2] = biological target: T1, BRAF^V600E (Mus musculus, UniProt P28028, V585E); test: V600E mutant BRAF kinase assay; type: biochemical; details: read-out: BRAF^V600E Inhibition IC50 ± SEM
T1 construct: Mouse full-length GST-tagged; GST; purchased Invitrogen PV3849
Experimental: V600E mutant BRAF kinase assay was performed to investigate the activity of […]
Mouse full-length GST-tagged
BRAFV600E (7.5 ng, Invitrogen, PV3849) was pre -incubated with drug (1 µL) and assay dilution buffer (4 µL) for 6 0 min at 25 °C. In assay dilution buffer, a solution (5 µL) containing MgCl2 (30 mM), ATP (200 µM), recombinant human full length (200 ng) […] N-terminal His-tagged MEK1 (Invitrogen) was added to start the assay, after incubation for 25 min at 25 °C. The assay was stopped using 5X protein denaturing buffer (LDS) solution (5 µL). To further denature the protein, heat (70° C) was applied […]
electrophoresis (at 200 V). 10 µL of each reaction was loaded into the precast plates and electrophoresis was allowed to proceed. After completion of electrophoresis, the front part of the precast gel plate (holding hot ATP) was cut and afterwards cast -off.
The dried gel was developed using a phosphor screen. […]
Computerized Prism 5 program was used to statistically analyzed data using one-way ANOVA test followed by Tukey’s as post ANOVA for multiple comparison at P ≤.05.
Data were presented as mean ± SEM.

EGFR [3] = biological target: T2, EGFR (Homo sapiens, UniProt P00533); test: EGFR-TK inhibitory assay
[4] = system: MCF-7 (breast cancer cell line); test: Antiproliferative assay, MCF-7; type: cell-based; details: Homo sapiens, MCF7; read-out: Antiproliferative Activity IC50 ± SEM MCF-7
Experimental: (§1) For ease of manipulation, the average (GI50) versus the four cancer cell lines was used.
(§2) To investigate the antiproliferative potential of 3a–e, 4a–c, and 5a–c, the MTT assay was carried out using various cell lines in accordance with previously reported procedures. See Appendix SA (Supplementary Materials). […]
(§3) ethylenediamine tetra acetic acid (EDTA) was used to passage the cells after every 2-3 days. 96-well flat-bottomed cell culture plates were used to seed the cells at a density of 10^4 cells mL-1. The medium was aspirated from all the wells of culture plates after 24 h followed by the addition of synthesized compounds (in 200 μL medium to yield a final concentration of 0.1% (v/v) dimethylsulfoxide) into individual wells of the plates.
(§4) Four wells were designated to a single compound. The plates were allowed to incubate at 37°C for 96 h. Afterwards, the medium was aspirated and 3-[4,5-dimethylthiazol-2-yl]-2,5-diphenyltetrazolium bromide (MTT) (0.4 mg/mL) in medium was added to each well and subsequently incubated for 3 h. The medium was aspirated and 150 μL dimethyl sulfoxide (DMSO) was added to each well. The plates were vortexed followed by the measurement of absorbance at 540 nm on a microplate reader. The results were presented as inhibition (%) of proliferation in contrast to controls comprising 0.1% 4.2.1.2. Assay for antiproliferative effect
(§5) To explore the antiproliferative potential of compounds propidium iodide fluorescence assay was performed using different cell lines such as Panc-1 (pancreas cancer cell […]
(§6) (epithelial cancer cell line), respectively. To calculate the total nuclear DNA, a fluorescent dye (propidium iodide, PI) is used which can attach to the DNA, thus offering a quick and precise technique. PI cannot pass through the cell membrane and its signal intensity can be considered as directly proportional to quantity of cellular
(§7) DNA. Cells whose cell membranes are damaged or have changed permeability are counted as dead ones. The assay was performed by seeding the cells of different cell lines at a density of 3000-7500 cells/well (in200μl medium) in culture plates followed […]
(§8) The medium was removed; the compounds were added to the plates at 10 μM concentrations (in 0.1% DMSO) in triplicates, followed by incubation for 48h. DMSO (0.1%) was used as control. After incubation, medium was removed followed by the addition of PI (25 μl, 50μg/mL in water/medium) to each well of the plates. At -80 °C, the plates were allowed to freeze for 24 h, followed by thawing at 25 °C. A fluorometer (Polar-Star BMG Tech) was used to record the readings at excitation and emission wavelengths of 530 and 620 nm for each well. The percentage cytotoxicity of compounds was calculated using the following formula:
(§9) Where ATC= Absorbance of treated cells and AC= Absorbance of control. […]
(§10) was used as positive control in the assay. […]

EGFR^T790M [5] = biological target: T3, EGFR^T790M (Homo sapiens, UniProt P00533, T790M); test: EGFR^T790M inhibitory assay (HTRF KinEASE-TK); type: biochemical; details: for IC50: HTRF KinEASE-TK, read-out: EGFR^T790M Inhibition IC50 ± SEM
T3 construct: purchased Carna Bioscience
Experimental: Osimertinib served as the positive control.
EGFRT790M inhibitory assay
The EGFR protein (EGFRT790M) was purchased from Carna Bioscience. The HTRF KinEASE-TK kit (Cat#62TK0PEB) was from Cisbio. All the other chemicals were […]
low volume, black, NBS), using Cisbio HTRF KinEASE -TK kit. The assay buffer contained 50 mM HEPES (Ph 7.0), 0.02% NaN3, 0.01% BSA, 0.1 mM Orthovanadate, […]
EGFR kinases was first incubated with compounds for 2 h respectively, then ATP/Peptide substrate mixture was added to initiate the reaction. After 30 min reaction at room temperature, the detection reagents were added. The TR-FRET signal was measured on PerkinElmer Envision using […]
The data was analyzed using Graph
Pad Prism (Version 6.0) software after three parallel experiments. […]

[6] = system: LOX-IMVI melanoma cell line; test: LOX-IMVI melanoma cell line cytotoxicity assay (MTT); type: cell-based; details: Homo sapiens, 5-dose concentrations, read-out: LOX-IMVI Melanoma IC50 ± SEM
Experimental: The IC50 values of the test compounds were determined at 5-dose concentrations, with staurosporine serving as a control.
The anticancer activity of the synthesized derivatives was determined using the MTT cytotoxicity assay on LOX-IMVI melanoma cell line. See Appendix SA (Supplementary Materials).

[7] = system: A-549 (epithelial cancer cell line); test: Antiproliferative assay, A-549; type: cell-based; details: Homo sapiens, A549; read-out: Antiproliferative Activity IC50 ± SEM A-549
Experimental: as §1, §2, §3, §4, §5, §6, §7, §8, §9, §10

[8] = system: HT-29 (colon cancer cell line); test: Antiproliferative assay, HT-29; type: cell-based; details: Homo sapiens, read-out: Antiproliferative Activity IC50 ± SEM HT-29
Experimental: as §1, §2, §3, §4, §5, §6, §7, §8, §9, §10

[9] = system: Panc-1 (pancreatic cancer cell line); test: Antiproliferative assay, Panc-1; type: cell-based; details: Homo sapiens, read-out: Antiproliferative Activity IC50 ± SEM Panc-1
Experimental: as §1, §2, §3, §4, §5, §6, §7, §8, §9, §10

[10] = system: four human cancer cell lines (Panc-1, MCF-7, HT-29, A-549); test: Antiproliferative assay, average (GI50) versus the four cancer cell lines; type: cell-based; details: Homo sapiens; average versus the four cancer cell lines
Experimental: as §1, §2, §3, §4, §5, §6, §7, §8, §9, §10

EGFR^L858R = system: EGFR^L858R; parameters: method as in PMID 29758406; details: cited from earlier work
EGFR^T790M [11] = biological target: T3, EGFR^T790M; details: cited from earlier work
c-MET = system: c-MET; parameters: method as in PMID 29758406; details: cited from earlier work
EGFR [12] = biological target: T2, EGFR; parameters: CD, amino acids 645–1186); His6 (N); made in house; host or cells: Sf-9 insect cells (baculovirus; pBlueBacHis2B / pFASTBacHTc; details: cited from earlier work
four cancer cell lines = system: four cancer cell lines; parameters: method as in PMID 32920363; details: read-out: GI50 against four cancer cell lines; cited from earlier work
BRAF^V600E [13] = details: cited from earlier work

T3 sequence (P00533 25-1210 T790M): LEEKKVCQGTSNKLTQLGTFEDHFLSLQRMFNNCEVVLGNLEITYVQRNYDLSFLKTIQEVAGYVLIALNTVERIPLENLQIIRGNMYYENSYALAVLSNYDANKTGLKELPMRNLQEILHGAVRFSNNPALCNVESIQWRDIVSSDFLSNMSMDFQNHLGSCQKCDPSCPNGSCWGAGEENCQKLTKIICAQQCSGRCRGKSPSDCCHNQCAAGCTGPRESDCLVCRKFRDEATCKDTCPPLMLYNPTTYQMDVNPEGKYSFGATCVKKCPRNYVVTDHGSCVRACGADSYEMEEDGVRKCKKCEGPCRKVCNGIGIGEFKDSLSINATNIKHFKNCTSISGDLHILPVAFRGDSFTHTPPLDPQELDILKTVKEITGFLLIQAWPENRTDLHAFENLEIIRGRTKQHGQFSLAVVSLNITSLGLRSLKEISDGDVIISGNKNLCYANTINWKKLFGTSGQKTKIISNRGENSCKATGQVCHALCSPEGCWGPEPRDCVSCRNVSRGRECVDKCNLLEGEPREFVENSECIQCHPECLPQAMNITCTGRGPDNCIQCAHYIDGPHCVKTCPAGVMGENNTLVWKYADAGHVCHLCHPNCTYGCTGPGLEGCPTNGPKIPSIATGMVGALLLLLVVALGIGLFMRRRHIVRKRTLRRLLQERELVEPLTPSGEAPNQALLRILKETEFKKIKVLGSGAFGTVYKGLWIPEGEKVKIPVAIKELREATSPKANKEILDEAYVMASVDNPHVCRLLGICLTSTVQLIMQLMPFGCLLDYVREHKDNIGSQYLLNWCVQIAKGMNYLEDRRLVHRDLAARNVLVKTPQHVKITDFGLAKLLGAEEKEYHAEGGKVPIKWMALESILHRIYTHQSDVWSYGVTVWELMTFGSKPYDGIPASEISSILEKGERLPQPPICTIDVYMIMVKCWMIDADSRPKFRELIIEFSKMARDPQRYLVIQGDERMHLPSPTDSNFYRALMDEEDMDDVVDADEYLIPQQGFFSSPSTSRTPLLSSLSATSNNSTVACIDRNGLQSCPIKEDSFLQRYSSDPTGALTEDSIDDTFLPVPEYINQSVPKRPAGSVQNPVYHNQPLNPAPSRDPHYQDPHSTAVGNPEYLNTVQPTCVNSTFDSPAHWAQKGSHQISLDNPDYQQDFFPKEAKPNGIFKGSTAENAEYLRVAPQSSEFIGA
T2 sequence (P00533 669-1210): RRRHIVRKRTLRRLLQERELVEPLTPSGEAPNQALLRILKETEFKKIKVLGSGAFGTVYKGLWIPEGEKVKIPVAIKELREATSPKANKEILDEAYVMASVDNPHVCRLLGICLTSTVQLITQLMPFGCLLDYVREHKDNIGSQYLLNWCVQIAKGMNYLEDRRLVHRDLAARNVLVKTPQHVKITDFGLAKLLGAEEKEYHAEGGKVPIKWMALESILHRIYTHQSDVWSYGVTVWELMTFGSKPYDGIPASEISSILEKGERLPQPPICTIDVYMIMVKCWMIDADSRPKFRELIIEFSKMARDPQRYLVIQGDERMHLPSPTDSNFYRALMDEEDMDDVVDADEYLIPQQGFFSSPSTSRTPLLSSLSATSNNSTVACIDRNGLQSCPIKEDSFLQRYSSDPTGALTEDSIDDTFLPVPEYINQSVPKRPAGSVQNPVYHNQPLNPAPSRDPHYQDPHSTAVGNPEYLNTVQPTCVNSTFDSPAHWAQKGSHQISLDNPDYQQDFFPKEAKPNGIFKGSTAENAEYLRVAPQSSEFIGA
T1 sequence (P28028 whole entry V585E): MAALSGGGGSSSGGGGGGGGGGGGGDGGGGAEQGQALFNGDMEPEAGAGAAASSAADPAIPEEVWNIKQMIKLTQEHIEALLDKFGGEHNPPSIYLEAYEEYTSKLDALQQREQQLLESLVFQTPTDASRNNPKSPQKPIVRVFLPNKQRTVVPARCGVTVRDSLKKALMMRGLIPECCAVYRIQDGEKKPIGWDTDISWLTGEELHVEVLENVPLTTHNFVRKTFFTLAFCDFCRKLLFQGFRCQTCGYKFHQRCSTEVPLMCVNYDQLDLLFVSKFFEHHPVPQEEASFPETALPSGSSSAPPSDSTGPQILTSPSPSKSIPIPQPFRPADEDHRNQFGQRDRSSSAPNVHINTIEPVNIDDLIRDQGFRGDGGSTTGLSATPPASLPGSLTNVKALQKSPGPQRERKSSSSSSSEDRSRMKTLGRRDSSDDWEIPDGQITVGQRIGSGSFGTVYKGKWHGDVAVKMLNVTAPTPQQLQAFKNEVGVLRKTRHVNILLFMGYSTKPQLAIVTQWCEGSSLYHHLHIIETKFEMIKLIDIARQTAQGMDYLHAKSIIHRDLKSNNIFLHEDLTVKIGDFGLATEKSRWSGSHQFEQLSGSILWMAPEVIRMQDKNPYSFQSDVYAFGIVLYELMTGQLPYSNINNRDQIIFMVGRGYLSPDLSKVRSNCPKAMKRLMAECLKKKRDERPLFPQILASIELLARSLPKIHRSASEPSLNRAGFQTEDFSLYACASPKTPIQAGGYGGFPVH

Row | IC50 (BRAF^V600E [2]) [nM] | IC50 (EGFR [3]) [nM] | IC50 [4] [nM] | selectivity index toward EGFR^T790M protein over wild-type EGFR (EGFR^T790M [5]) [fold] | IC50 (EGFR^T790M [5]) [nM] | IC50 [7] [nM] | IC50 [8] [nM] | IC50 [9] [nM] | GI50 [10] [nM] | fold more potent than erlotinib (EGFR IC50) (EGFR [3]; relative to erlotinib IC50 = 80 nM) [fold] | Compound | viability at 96 h, 50 µM [1] [%] | IC50 [6] [nM] | IC50 (EGFR^L858R) [nM] | IC50 (EGFR^T790M [11]) [nM] | IC50 (c-MET) [nM] | IC50 (EGFR [12]) [nM] | GI50 (four cancer cell lines) [nM] | IC50 (BRAF^V600E [13]) [nM]
1 | 39 ± 3 | 74 ± 5 | 32 ± 3 | 8 | 9.2 ± 2 | 30 ± 3 | 32 ± 3 | 30 ± 3 | 31 | – | CCOC(=O)c1[nH]c2ccc(Cl)cc2c1CNCCc1ccc(N2CCCC2)cc1 [Compound 3b, Ethyl 5-chloro-3-((4-(pyrrolidin-1-yl)phenethylamino)methyl)-1H-indole-2-carboxylate] | 91 | 1120 ± 10 | – | – | – | – | – | –
2 | 35 ± 3 | 68 ± 5 | 30 ± 3 | 8 | 8.6 ± 2 | 27 ± 2 | 30 ± 3 | 29 ± 3 | 29 | 1.2 | CCOC(=O)c1[nH]c2ccc(Cl)cc2c1CNCCc1cccc(N2CCCCC2)c1 [Compound 3e, Ethyl 5-chloro-3-((3-(piperidin-1-yl)phenethylamino)methyl)-1H-indole-2-carboxylate] | 92 | 960 ± 10 | – | – | – | – | – | –
3 | – | – | – | – | – | – | – | – | – | – | CCc1ccc(Cn2cc(-c3cc(-c4ccc(Br)cc4)nc(N)n3)c3ccccc32)cc1 [Compound II] | – | – | 99 | 94 | 595 | – | – | –
4 | – | – | – | – | – | – | – | – | – | – | Cc1c2n(c3ccc(Cl)cc13)C(=O)CN(CCc1ccc(N3CCOCC3)cc1)C2=O [Compound VI] | – | – | – | – | – | 80 | 1110 | 150

— PMC9921301, “Design, Synthesis, and Antiproliferative Activity of New 5-Chloro-indole-2-carboxylate and Pyrrolo[3,4-b]indol-3-one Derivatives as Potent Inhibitors of EGFR^T790M/BRAF^V600E Pathways” (Molecules, 2023)
